From patent US9285322B2, “pH modulation methods and systems for detecting binding events” (The Texas A&M University System, priority 2010, dated 2016)
Blank lines part the entries; values can stand above or below the molecule they belong to.

Tests used:
different kinases = conditions: cited from earlier work
calmodulin [1] = target: T1, calmodulin (Homo sapiens, UniProt P0DP23); conditions: read-out: equilibrium dissociation constant; cited from earlier work
calmodulin [2] = target: T1, calmodulin; conditions: 1 M CaCl2, 66 μM dye-conjugated calmodulin, 10 mM Tris, 100 mM NaCl, pH 7.4
avidin [3] = target: T2, avidin (Gallus gallus, UniProt P02701); assay: homogeneous biotin detection with ortho-TEXAS RED-conjugated avidin in microfluidic channels; type: binding; conditions: 200 μM biotin, 10 μM ortho-TEXAS RED-conjugated avidin, PBS, pH 8.2
T2 sequence (P02701 25-152): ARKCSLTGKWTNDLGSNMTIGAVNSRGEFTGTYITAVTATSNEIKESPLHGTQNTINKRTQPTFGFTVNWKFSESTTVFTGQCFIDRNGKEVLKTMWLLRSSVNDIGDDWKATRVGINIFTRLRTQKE

avidin [4] = target: T2, avidin; assay: protein-protein interaction assay: labeled avidin with biotinylated BSA in two parallel microfluidic channels; type: binding
[5] = target: biotinylated bovine serum albumin (bovine) (UniProt P02769); assay: homogeneous pH modulation fluorescence assay in two parallel microfluidic channels; 3 uM labeled avidin, 500 nM biotinylated BSA, 150 mM NaCl, 10 mM PBS, pH 7.0
Sequence of biotinylated bovine serum albumin (bovine) (P02769 25-607 limits assumed): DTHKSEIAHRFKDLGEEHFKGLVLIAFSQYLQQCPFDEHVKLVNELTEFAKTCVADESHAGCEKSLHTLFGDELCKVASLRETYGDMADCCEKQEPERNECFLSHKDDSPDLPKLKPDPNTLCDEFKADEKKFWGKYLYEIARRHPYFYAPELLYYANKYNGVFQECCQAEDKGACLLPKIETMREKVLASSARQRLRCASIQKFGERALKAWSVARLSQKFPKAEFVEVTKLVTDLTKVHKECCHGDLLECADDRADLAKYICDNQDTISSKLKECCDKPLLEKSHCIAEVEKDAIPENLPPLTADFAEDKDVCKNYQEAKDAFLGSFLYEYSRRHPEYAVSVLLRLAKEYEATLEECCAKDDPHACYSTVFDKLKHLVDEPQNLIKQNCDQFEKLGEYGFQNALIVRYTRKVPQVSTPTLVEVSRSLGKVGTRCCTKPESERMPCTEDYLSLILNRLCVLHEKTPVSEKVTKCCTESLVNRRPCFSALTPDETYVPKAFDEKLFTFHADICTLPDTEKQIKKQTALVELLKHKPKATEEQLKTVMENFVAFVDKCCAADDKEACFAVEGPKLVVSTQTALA

Molecule: Nc1ncnc2c1ncn2[C@@H]1O[C@H](COP(=O)(O)OP(=O)(O)OP(=O)(O)O)[C@@H](O)[C@H]1O [ATP, adenosine triphosphate]
affinities of different kinases for ATP (different kinases): tens of nanomolar to hundreds of micromolar

Molecule: [Ca+2].[Cl-].[Cl-] [Ca^2+, calcium chloride]
Kd (calmodulin [1]): 14 µM
attenuation in fluorescence intensity (factor) when Ca2+ is present (calmodulin [2]): two

Molecule: O=C(O)CCCC[C@@H]1SC[C@@H]2NC(=O)N[C@@H]21 [biotin]
fluorescence intensity increase (factor) when biotin was present (avidin [3]): six

Molecule: biotinylated BSA: biotinylated bovine serum albumin
signal in channel with biotinylated BSA relative to channel without (times brighter) (avidin [4]; 500 nM biotinylated BSA, 3 μM ortho-TEXAS RED succinimidyl ester labeled avidin, 150 mM NaCl, 10 mM PBS, pH 7.0): approximately eight

fluorescence intensity with biotinylated BSA relative to the channel without it [5]: 8 fold
Molecule: ortho-TEXAS RED succinimidyl ester labeled avidin (from UniProt P02701 25-152)

Molecule: para-sulforhodamine 101 [para-TEXAS RED®]
fluorescence difference between channels with and without biotinylated BSA, control dye (avidin [4]; control with para-TEXAS RED under identical conditions (500 nM biotinylated BSA, pH 7.0)): no difference between the two channels
